Assays:
Test in all cases: Test E pre-/postemergence herbicide test
[1] = tested on: prickly sida; type: in vivo, Sida spinosa
Summary of the method: (§1)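 Ratings from 0 (no effect) to 100 (complete control) were assigned by visual comparison with untreated plants 12 to 14 days after application. Test chemicals, formulated with surfactant in a non-phytotoxic solvent blend, were applied to soil after planting or to foliage of 2–18 cm plants.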

[2] = tested on: johnsongrass; type: in vivo, Sorghum halepense
Summary of the method: as §1

[3] = tested on: common groundsel; type: in vivo, Senecio vulgaris
Summary of the method: as §1

[4] = tested on: Surinam grass; type: in vivo, Urochloa decumbens
Summary of the method: as §1

[5] = tested on: common ragweed; type: in vivo, Ambrosia elatior
Summary of the method: as §1

[6] = tested on: Italian ryegrass; type: in vivo, Lolium multiflorum
Summary of the method: as §1

[7] = tested on: bermudagrass; type: in vivo, Cynodon dactylon
Summary of the method: as §1

[8] = tested on: common purslane; type: in vivo, Portulaca oleracea
Summary of the method: as §1

[9] = tested on: tropical spiderwort; type: in vivo, Commelina benghalensis
Summary of the method: as §1

[10] = tested on: quackgrass; type: in vivo, Elytrigia repens
Summary of the method: as §1

[11] = tested on: Canada horseweed; type: in vivo, Erigeron Canadensis
Summary of the method: as §1

[12] = Postemergence, 500 g ai/ha, scale 0 to 100
[13] = Postemergence, 250 g ai/ha, scale 0 to 100
[14] = Preemergence, 62 g ai/ha, scale 0 to 100
[15] = Preemergence, 125 g ai/ha, scale 0 to 100
[16] = Preemergence, 250 g ai/ha, scale 0 (no effect) to 100 (complete control)
[17] = Preemergence, 500 g ai/ha, scale 0 (no effect) to 100 (complete control)
[18] = postemergence, 125 g ai/ha, scale 0 to 100
[19] = postemergence, 62 g ai/ha, scale 0 to 100

## CCNC(=O)c1ccc(F)c(NC(=O)c2cn(C(C)(C)C)nc2CC)c1 [Compound 193]
[1]; [12]
  Plant response rating, Prickly Sida: 95
[1]; [13]
  Plant response rating, Prickly Sida: 75
[1]; [14]
  Plant response rating, Prickly Sida: 20
[1]; [15]
  Plant response rating, Prickly Sida: 70
[1]; [16]
  Plant response rating, Prickly Sida: 70
[1]; [17]
  Plant response rating, Prickly Sida: 95
[1]; [18]
  Plant response rating, Prickly Sida: 60
[1]; [19]
  Plant response rating, Prickly Sida: 60
[2]; [12]
  Plant response rating, Johnsongrass: 80
[2]; [13]
  Plant response rating, Johnsongrass: 70
[2]; [14]
  Plant response rating, Johnsongrass: 20
[2]; [15]
  Plant response rating, Johnsongrass: 75
[2]; [16]
  Plant response rating, Johnsongrass: 85
[2]; [17]
  Plant response rating, Johnsongrass: 95
[2]; [18]
  Plant response rating, Johnsongrass: 70
[2]; [19]
  Plant response rating, Johnsongrass: 40
[3]; [12]
  Plant response rating, Groundsel: 100
[3]; [13]
  Plant response rating, Groundsel: 70
[3]; [14]
  Plant response rating, Groundsel: 20
[3]; [15]
  Plant response rating, Groundsel: 100
[3]; [16]
  Plant response rating, Groundsel: 100
[3]; [17]
  Plant response rating, Groundsel: 100
[3]; [18]
  Plant response rating, Groundsel: 40
[3]; [19]
  Plant response rating, Groundsel: 20
[4]; [12]
  Plant response rating, Surinam Grass: 90
[4]; [13]
  Plant response rating, Surinam Grass: 85
[4]; [15]
  Plant response rating, Surinam Grass: 80
[4]; [17]
  Plant response rating, Surinam Grass: 100
[4]; [18]
  Plant response rating, Surinam Grass: 70
[4]; [19]
  Plant response rating, Surinam Grass: 10
[5]; [12]
  Plant response rating, Ragweed: 75
[5]; [13]
  Plant response rating, Ragweed: 70
[5]; [14]
  Plant response rating, Ragweed: 50
[5]; [15]
  Plant response rating, Ragweed: 50
[5]; [16]
  Plant response rating, Ragweed: 80
[5]; [17]
  Plant response rating, Ragweed: 95
[5]; [18]
  Plant response rating, Ragweed: 30
[5]; [19]
  Plant response rating, Ragweed: 10
[6]; [12]
  Plant response rating, Ryegrass, Italian: 95
[6]; [13]
  Plant response rating, Ryegrass, Italian: 95
[6]; [14]
  Plant response rating, Ryegrass, Italian: 20
[6]; [15]
  Plant response rating, Ryegrass, Italian: 90
[6]; [16]
  Plant response rating, Ryegrass, Italian: 100
[6]; [17]
  Plant response rating, Ryegrass, Italian: 100
[6]; [18]
  Plant response rating, Ryegrass, Italian: 60
[6]; [19]
  Plant response rating, Ryegrass, Italian: 30
[7]; [12]
  Plant response rating, Bermudagrass: 95
[7]; [13]
  Plant response rating, Bermudagrass: 90
[7]; [14]
  Plant response rating, Bermudagrass: 85
[7]; [15]
  Plant response rating, Bermudagrass: 100
[7]; [16]
  Plant response rating, Bermudagrass: 100
[7]; [17]
  Plant response rating, Bermudagrass: 100
[7]; [18]
  Plant response rating, Bermudagrass: 90
[7]; [19]
  Plant response rating, Bermudagrass: 60
[8]; [12]
  Plant response rating, Purslane: 85
[8]; [13]
  Plant response rating, Purslane: 60
[8]; [15]
  Plant response rating, Purslane: 60
[8]; [16]
  Plant response rating, Purslane: 100
[8]; [17]
  Plant response rating, Purslane: 100
[8]; [18]
  Plant response rating, Purslane: 60
[8]; [19]
  Plant response rating, Purslane: 20
[9]; [12]
  Plant response rating, Spiderwort: 70
[9]; [13]
  Plant response rating, Spiderwort: 50
[9]; [15]
  Plant response rating, Spiderwort: 80
[9]; [16]
  Plant response rating, Spiderwort: 90
[9]; [17]
  Plant response rating, Spiderwort: 95
[9]; [18]
  Plant response rating, Spiderwort: 20
[10]; [12]
  Plant response rating, Quackgrass: 80
[10]; [13]
  Plant response rating, Quackgrass: 80
[10]; [14]
  Plant response rating, Quackgrass: 10
[10]; [15]
  Plant response rating, Quackgrass: 60
[10]; [16]
  Plant response rating, Quackgrass: 70
[10]; [17]
  Plant response rating, Quackgrass: 95
[10]; [18]
  Plant response rating, Quackgrass: 70
[10]; [19]
  Plant response rating, Quackgrass: 0
[11]; [12]
  Plant response rating, Horseweed: 90
[11]; [13]
  Plant response rating, Horseweed: 70
[11]; [14]
  Plant response rating, Horseweed: 80
[11]; [15]
  Plant response rating, Horseweed: 100
[11]; [16]
  Plant response rating, Horseweed: 100
[11]; [17]
  Plant response rating, Horseweed: 100
[11]; [18]
  Plant response rating, Horseweed: 50
[11]; [19]
  Plant response rating, Horseweed: 50
